Tested on: Aedes aegypti mosquitoes
Experiment: Arm-in-cage testing of protective efficacy
Format: in vivo
Protocol: Additional testing was performed with the lotion of example 3 including sunflower oil, isopropyl alcohol, peppermint oil, citronella oil, zinc oxide, water and turmeric oil with the following protocols. Aedes aegypti mosquitoes were obtained from insecticide-susceptible reference strains held at the London School of Hygiene & Tropical Medicine, UK. All mosquitoes are reared and housed under optimal environmental conditions of 25° C.±2° C. and 80% Relative Humidity with a 12:12 hour photoperiod. Testing was carried out in a testing room maintained at […] with a 12:12 hour photoperiod. For each product, the same person carried out the arm-in-cage testing.
For each product test, three batches of 50 female mosquitoes were placed in cages inside the testing room. Before the start of each test a bare arm with gloved hand was inserted into the cage for 30 seconds to assess the biting readiness of the mosquitoes. […] The number of mosquitoes probing the untreated arm was counted at the end of the 30 second test.
Following the combined fitness/control test, the product was applied onto the right arm at the WHO standard rate of 1 ml per 600 cm 2 […] for DEET, and at a rate of 2 mg per cm′ for the Sunscreen Repellent. The arm was then inserted into the cage for 30 seconds and the number of mosquitoes probing on the arm counted and recorded. […]

CCN(CC)C(=O)c1cccc(C)c1 [8% DEET]
50% protective efficacy time (time after application with 50% protection): 6 h
complete (100%) protective efficacy time (time after application with 100% protection): 1 h
